Earlier results in US4801444A, “Medicinal preparation for individual prevention of venereal diseases and treatment of urogenital trichomoniasis” (Poltavsky Meditsinsky Stomatologichesky Institut, priority 1988, dated 1989).
Like-named read-outs stand apart in the source and are kept apart here.

What was measured:
[1] = test system: urogenital trichomoniasis
[2] = 0.05-0.1 percent solution, clinical application
[3] = test system: venereal diseases; settings: 0.05-0.1 percent solution
[4] = test system: venereal diseases; settings: 0.05-0.1 percent solution; remark: listed apart in the source
[5] = test system: trichomonads; settings: imidazole medicines, clinical use

In the case of `CC(=O)Nc1cc([As](=O)(O)O)ccc1O` [Acetarsol], the “efficacy in topical treatment of urogenital trichomoniasis” value (“efficacy in topical treatment” below) ([1]; topical (external)) is listed as “insufficiently efficacious”.
In the case of `[H]/N=C(\N/C(=N/[H])NCCCCCCNC(=N)NC(=N)Nc1ccc(Cl)cc1)Nc1ccc(Cl)cc1` [Chlorhexidine], the “effect upon skin and genital mucosa in man” value [2] is listed as “irritating and withering effect upon the skin and genital mucosa”, the “bactericidal activity in vitro” value [3] is listed as “adequate bactericidal activity” and the “bactericidal activity in tests on animals” value [4] is listed as “adequate bactericidal activity”.
In the case of `Cc1ncc([N+](=O)[O-])n1CCO` [Metronidazole], the “relapsing of a specific process” value [5] is listed as “up to 8.4% of all cases”.
In the case of `CCS(=O)(=O)CCn1c([N+](=O)[O-])cnc1C` [Tinidazole], the “relapsing of a specific process” value [5] is listed as “up to 8.4% of all cases”.
In the case of `OB(O)O` [boric acid], the “efficacy in topical treatment” value ([1]; in vivo) is listed as “insufficiently efficacious”.
In the case of `O=S(=O)([O-])[O-].[Cu+2]` [copper sulphate], the “efficacy in topical treatment” value ([1]; topical (external)) is given as “insufficiently efficacious”.
In the case of `O=C(N[C@H](CO)[C@H](O)c1ccc([N+](=O)[O-])cc1)C(Cl)Cl` [laevomycetin], the “efficacy in topical treatment” value ([1]; topical (external)) is listed as “insufficiently efficacious”.
For `O=[N+]([O-])[O-].[Ag+]` [lapis], the “efficacy in topical treatment” value ([1]; topical (external)) is listed as “insufficiently efficacious”.
In the case of `O=S(=O)([O-])[O-].[Zn+2]` [zinc sulphate], the “efficacy in topical treatment” value ([1]; topical (external)) is listed as “insufficiently efficacious”.
